Where two headings read alike, the source gives them in different places.
Assays:
[1] = target: full-length human PIKFYVE (Homo sapiens (Human), UniProt Q9Y2I7, L932S/Q1183K/Q995L/S1033A/S696N/T998S); test: PIKfyve biochemical assay (ADP-Glo Kinase assay, Carna Biosciences)
Procedure: (§1) PIKfyve Biochemical Assay. The biochemical PIKFyve inhibition assays were run by Carna Biosciences according to proprietary methodology based on the Promega ADP-Glo™ Kinase assay. […] GST-PIKFYVE was purified by using glutathione sepharose chromatography and used in an ADP-Glo™ Kinase assay (Promega). Reactions were set up by adding the test compound solution, substrate solution, ATP solution and kinase solution, each at 4× final concentrations. Reactions were prepared with assay buffer (50 mM MOPS, 1 mM DTT, pH7.2), mixed, and incubated in black 384 well polystyrene plates for 1 hour at room temperature. ADPGlo™ reagent was then added for 40 minutes, followed by kinase detection reagent for an additional 40 minutes. The kinase activity was evaluated by detecting relative light units on a luminescence plate reader. Samples were run in duplicate from 10 μM to 3 nM. […] IC50 values were calculated from concentration vs % inhibition curves by fitting to a four-parameter logistic curve.
as §1, with “The” for “PIKfyve Biochemical Assay. The”, “ADP-Glo™” for “ADPGlo™”, “uM” for “μM”, “curve. […]” for “curve.”

FAB1 TDP-43 yeast strain = test: Propidium iodide flow cytometry viability assay, control FAB1 TDP-43 yeast strain; type: cell-based; details: 15 μM to 0.11 μM
Text: (§2) Generation of TDP-43 yeast model expressing human PIKfyve. Human PIKFYVE (“entry clone”) was cloned into pAG416GPDccdB (“destination vector”) according to standard Gateway cloning protocols (Invitrogen, Life Technologies). The resulting pAG416GPD-PIKFYVE plasmids were amplified in E. coli and plasmid identity confirmed by restriction digest and Sanger sequencing. Lithium acetate/polyethylene glycol-based transformation was used to introduce the above PIKFYVE plasmid into a BY4741 yeast strain auxotrophic for the ura3 gene and deleted for two transcription factors that regulate the xenobiotic efflux pumps, a major efflux pump, and FAB1, the yeast ortholog of PIKFYVE (MATa, snq2::KILeu2; pdr3::Klura3; pdr1::NATMX; fab1::G418R, his3; leu2; ura3; met15; LYS2+) (FIG. 2). Transformed yeast were plated on solid agar plates with complete synthetic media lacking uracil (CSM-ura) and containing 2% glucose. Individual colonies harboring the control or PIKFYVE TDP-43 plasmids were recovered. A plasmid containing wild-type TDP-43 under the transcriptional control of the GAL1 promoter and containing the hygromycin-resistance gene as a selectable marker was transformed into the fab/::G418R pAG416GPD-PIKFYVE yeast strain (FIG. 1). Transformed yeast were plated on CSM-ura containing 2% glucose and […] after overnight recovery in media lacking antibiotic. Multiple independent isolates were further evaluated for cytotoxicity and TDP-43 expression levels.
(§3) Viability Assay. A control yeast strain with the wild-type yeast FAB1 gene and TDP-43 (“FAB1 TDP-43”, carries empty pAG416 plasmid), and the “PIKFYVE TDP-43” yeast strain, were assessed for toxicity using a propidium iodide viability assay. Both yeast strains were transferred from solid CSM-ura/2% glucose agar plates into 3 mL of liquid CSM-ura/2% glucose media for 6-8 hours at 30° C. with aeration. Yeast cultures were then diluted to an optical density at 600 nm wavelength (OD600) of 0.005 in 3 mL of CSM-ura/2% raffinose and grown overnight at 30° C. with aeration to an OD600 of 0.3-0.8. Log-phase overnight cultures were diluted to OD600 of 0.005 in CSM-ura containing either 2% raffinose or galactose and 150 μL dispensed into each well of a flat bottom 96-well plates. Compounds formulated in 100% dimethyl sulfoxide (DMSO) were serially diluted in DMSO and 1.5 μL diluted compound transferred to the 96-well plates using a multichannel pipet. Wells containing DMSO alone were also evaluated as controls for compound effects. Tested concentrations ranged from 15 μM to 0.11 μM. Cultures were immediately mixed to ensure compound distribution and covered plates incubated at 30° C. for 24 hours in a stationary, humified incubator.
(§4) Upon the completion of incubation, cultures were assayed for viability using propidium iodide (PI) to stain for dead/dying cells. A working solution of PI was made where, for each plate, 1 μL of 10 mM PI was added to 10 mL of CSM-ura (raffinose or galactose). The final PI solution ([…]) was dispensed into each well of a new round bottom 96-well plate. The overnight 96-well assay plate was then mixed with a multichannel pipet and 50 μL transferred to the PI-containing plate. This plate was then incubated for 30 minutes at 30° C. in the dark. A benchtop flow cytometer (Miltenyi MACSquant) was then used to assess red fluorescence (B2 channel), forward scatter, and side scatter (with following settings: gentle mix, high flow rate, fast measurement, 10,000 events). Intensity histograms were then gated for “PI-positive” or “PI-negative” using the raffinose and galactose cultures treated with DMSO as controls. The DMSO controls for raffinose or galactose-containing cultures were used to determine the window of increased cell death and this difference set to 100. All compounds were similarly gated and then compared to this maximal window to establish the percent reduction in PI-positive cells.

[2] = tested on: PIKFYVE TDP-43 yeast strain; test: Propidium iodide flow cytometry viability assay, PIKFYVE TDP-43 yeast strain; type: cell-based; details: for PIKfyve TDP-43 (active/inactive): yeast viability, 15 μM to 0.11 μM; for IC50: reduction in PI-positive cells, values plotted in FIG. 7
Text: as §2, §3, §4

hPIKfyve = hPIKfyve (Homo sapiens (Human), UniProt Q9Y2I7); test: NanoBRET TE Intracellular Kinase Assay, K-8, in HEK293 cells transfected with PIKFYVE-NanoLuc Fusion Vector; type: cell-based; details: 2 hours, tracer displacement, read-out: hPIKfyve BRET IC50
Procedure: NanoBRET™ TE Intracellular Kinase Assay, K-8 (Promega) Cell-Based Assay. Intracellular inhibition of PIKfyve was assayed using Promega's NanoBRET™ TE Intracellular Kinase Assay, K-8 according to manufacturer's instructions. A dilution series of test compounds was added for 2 hours to HEK293 cells transfected for a minimum of 20 hours with PIKFYVE-NanoLuc® Fusion Vector (Promega) containing a full-length PIKfyve according to manufacturer's specifications in a 96-well plate. Kinase activity was detected by addition of a NanoBRET™ tracer reagent, which was a proprietary PIKfyve inhibitor appended to a fluorescent probe (BRET, bioluminescence resonance energy transfer). Test compounds were tested at concentrations of 10, 3, 1, 0.3, 0.1, 0.03, 0.01, 0.003 μM. BRET signals were measured by a GloMax®Discover Multimode Microplate Reader (Promega) using 0.3 sec/well integration time, 450BP donor filter and 600LP acceptor filters. Active test compounds that bound PIKfyve and displaced the tracer reduced BRET signal. IC50 values were then calculated by fitting the data to the normalized BRET ratio.

[3] = ADP-Glo with full-length PIKfyve, read-out: PIKfyve IC50
[4] = values plotted in FIG. 7, read-out: PIKFYVE Biochemistry (IC50)
[5] = ADP-Glo, GST-PIKFYVE, 10 μM to 3 nM, read-out: hPIKfyve IC50

Chain of hPIKfyve (Q9Y2I7 whole entry, the tested form may be a part): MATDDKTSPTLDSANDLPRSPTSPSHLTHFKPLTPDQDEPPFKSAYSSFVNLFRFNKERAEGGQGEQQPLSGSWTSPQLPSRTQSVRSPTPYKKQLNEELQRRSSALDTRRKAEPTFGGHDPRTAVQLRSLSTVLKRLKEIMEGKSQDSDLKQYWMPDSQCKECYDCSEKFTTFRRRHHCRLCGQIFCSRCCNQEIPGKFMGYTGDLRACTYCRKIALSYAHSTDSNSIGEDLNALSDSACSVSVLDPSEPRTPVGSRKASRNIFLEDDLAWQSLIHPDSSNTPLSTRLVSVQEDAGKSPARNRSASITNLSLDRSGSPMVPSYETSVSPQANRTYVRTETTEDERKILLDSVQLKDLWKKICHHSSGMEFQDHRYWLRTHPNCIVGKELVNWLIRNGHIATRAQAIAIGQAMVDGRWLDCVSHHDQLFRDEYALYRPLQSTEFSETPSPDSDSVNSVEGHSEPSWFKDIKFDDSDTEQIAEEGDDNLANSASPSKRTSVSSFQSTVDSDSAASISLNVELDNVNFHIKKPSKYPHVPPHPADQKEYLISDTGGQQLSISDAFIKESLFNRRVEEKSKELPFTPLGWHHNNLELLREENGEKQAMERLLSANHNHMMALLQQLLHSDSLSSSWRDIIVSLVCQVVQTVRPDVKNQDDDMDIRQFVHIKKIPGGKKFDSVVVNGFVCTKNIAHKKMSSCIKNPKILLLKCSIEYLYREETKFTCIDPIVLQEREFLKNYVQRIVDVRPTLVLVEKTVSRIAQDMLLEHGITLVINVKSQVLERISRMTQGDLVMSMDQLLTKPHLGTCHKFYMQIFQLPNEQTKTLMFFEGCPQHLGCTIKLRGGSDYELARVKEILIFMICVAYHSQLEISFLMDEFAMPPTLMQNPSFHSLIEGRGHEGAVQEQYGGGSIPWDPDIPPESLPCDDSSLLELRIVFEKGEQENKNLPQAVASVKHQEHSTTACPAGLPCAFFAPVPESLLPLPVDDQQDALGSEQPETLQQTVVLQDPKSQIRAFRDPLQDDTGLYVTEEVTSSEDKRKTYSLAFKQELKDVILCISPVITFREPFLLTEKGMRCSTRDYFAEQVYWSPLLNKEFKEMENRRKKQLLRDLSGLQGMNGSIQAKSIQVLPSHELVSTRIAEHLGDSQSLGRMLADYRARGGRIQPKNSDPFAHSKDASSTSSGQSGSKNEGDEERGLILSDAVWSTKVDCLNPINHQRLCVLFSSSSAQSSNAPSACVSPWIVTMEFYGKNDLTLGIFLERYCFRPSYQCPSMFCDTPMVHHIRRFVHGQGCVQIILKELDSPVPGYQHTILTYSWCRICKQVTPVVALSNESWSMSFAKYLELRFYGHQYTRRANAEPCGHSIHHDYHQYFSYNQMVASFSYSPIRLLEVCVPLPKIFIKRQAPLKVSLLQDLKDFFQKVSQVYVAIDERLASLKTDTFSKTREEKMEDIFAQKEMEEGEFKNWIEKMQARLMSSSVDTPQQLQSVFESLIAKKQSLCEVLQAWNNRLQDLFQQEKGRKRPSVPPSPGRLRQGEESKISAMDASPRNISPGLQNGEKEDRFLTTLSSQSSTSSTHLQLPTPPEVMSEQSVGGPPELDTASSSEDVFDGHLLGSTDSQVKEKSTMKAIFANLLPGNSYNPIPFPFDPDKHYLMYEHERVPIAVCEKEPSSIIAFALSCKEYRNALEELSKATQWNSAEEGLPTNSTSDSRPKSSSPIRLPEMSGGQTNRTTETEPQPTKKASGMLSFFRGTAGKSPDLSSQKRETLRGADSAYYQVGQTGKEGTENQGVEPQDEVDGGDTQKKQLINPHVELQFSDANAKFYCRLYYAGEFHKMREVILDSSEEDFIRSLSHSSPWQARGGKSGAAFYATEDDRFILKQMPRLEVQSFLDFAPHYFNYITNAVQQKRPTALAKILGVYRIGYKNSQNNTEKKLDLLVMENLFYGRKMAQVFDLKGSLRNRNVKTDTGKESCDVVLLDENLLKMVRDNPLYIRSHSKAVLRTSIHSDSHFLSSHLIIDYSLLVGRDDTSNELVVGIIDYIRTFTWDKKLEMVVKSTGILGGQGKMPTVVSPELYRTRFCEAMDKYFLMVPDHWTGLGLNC
Chain of full-length human PIKFYVE (Q9Y2I7 whole entry S696N/L932S/Q995L/T998S/S1033A/Q1183K): as the sequence (Q9Y2I7 whole entry, the tested form may be a part) above, with S696N, L932S, Q995L, T998S, S1033A, Q1183K counted along it

| Structure (SMILES) | IC50 ([2]; Saccharomyces cerevisiae) | IC50 [1, 5] | IC50 (hPIKfyve) | other results |
| --- | --- | --- | --- | --- |
| Cc1cccc(/C=N/Nc2cc(N3CCOCC3)nc(OCCc3ccc(CN)cc3)n2)c1 |  |  |  | IC50 [1, 3]: 12 nM; FAB1 TDP-43 (active/inactive) (FAB1 TDP-43 yeast strain): Inactive; PIKfyve TDP-43 (active/inactive) [2]: Active |
| Cc1cccc(/C=N/Nc2cc(N3CCOCC3)nc(OCCc3ccccn3)n2)c1 |  |  |  | FAB1 TDP-43 (active/inactive) (FAB1 TDP-43 yeast strain): Inactive; PIKfyve TDP-43 (active/inactive) [2]: Inactive |
| CN(C)c1cc(N2CCOCC2)n2nc(-c3ccncc3)cc2n1 |  |  |  | FAB1 TDP-43 (active/inactive) (FAB1 TDP-43 yeast strain): Inactive; PIKfyve TDP-43 (active/inactive) [2]: Inactive |
| N#Cc1cc(N2CCOCC2)n2nc(-c3ccncc3)cc2n1 |  |  |  | IC50 [1, 3]: > 10000 nM; FAB1 TDP-43 (active/inactive) (FAB1 TDP-43 yeast strain): Inactive; PIKfyve TDP-43 (active/inactive) [2]: Inactive |
| Cc1cccc(/C=N/Nc2cc(N3CC4CC3CO4)n3nc(-c4ccncc4)cc3n2)c1 (centres unmarked) | 450 nM |  |  | IC50 [1, 4]: 3 nM |
| c1ccc(C2CN(c3nc(N4CCOCC4)n4nc(-c5ccncc5)cc4n3)CCN2)cc1 (centres unmarked) | > 15000 nM |  |  | IC50 [1, 4]: 2660 nM |
| c1ccc(-c2cccc(-c3nc(N4CCOCC4)n4nc(-c5ccncc5)cc4n3)n2)cc1 | 230 nM |  |  | IC50 [1, 4]: 14 nM |
| c1cc(-c2cc3nc(C4CNC4)nc(N4CCOCC4)n3n2)ccn1 | > 15000 nM |  |  | IC50 [1, 4]: 8020 nM |
| Oc1cc(-c2ccccc2)nn1-c1cc(N2CCOCC2)n2nc(-c3ccncc3)nc2n1 | 693 nM |  |  |  |
| Oc1cc(C2CCOCC2)nn1-c1cc(N2CCOCC2)n2nc(-c3ccncc3)cc2n1 | 9100 nM |  |  |  |
| Cc1cccc(/C=N/Nc2nc(N3CCOCC3)c3ncccc3n2)c1 | 8210 nM |  |  |  |
| c1ccc(-c2ccnc(-c3cc(N4CCOCC4)nc(OCc4ccncc4)n3)n2)cc1 | 1450 nM |  |  |  |
| c1ccc(N2CCc3c(OCc4cccnc4)nc(N4CCOCC4)nc32)cc1 | 2680 nM |  |  |  |
| Fc1cccc(-c2ccnn2-c2nc(N3CCOCC3)c3ncccc3n2)c1 | 5750 nM |  |  | IC50 [1, 4]: > 10000 nM |
| Cn1c(-c2ccncc2)nc2c(N3CCOCC3)nc(-c3ccnc(-c4ccccc4)n3)nc21 [Compound 1] |  | 10 to 100 nM | 10 to 100 nM |  |
| c1cc(-c2nc3c(N4CCOCC4)nc(-n4ccc(C5CCOCC5)n4)nc3[nH]2)ccn1 [Compound 6] |  | 10 to 100 nM | 10 to 100 nM |  |
| Cn1c(-c2ccncc2)nc2c(N3CCOCC3)nc(-n3ccc(-c4cccc(F)c4)n3)nc21 [Compound 28] |  | 10 to 100 nM | 10 to 100 nM |  |
| Cn1c(-c2ccncc2)nc2c(N3CCOCC3)nc(-c3noc(-c4ccccc4)n3)nc21 [Compound 32] |  | 10 to 100 nM | 100 to 1000 nM |  |
| CN1CCC(c2ccn(-c3nc(N4CCOCC4)c4nc(-c5ccncc5)n(C)c4n3)n2)C1 (centres unmarked) [Compound 37] |  | 100 to 1000 nM | 1000 to 10000 nM |  |
| Cn1c(-c2ccncc2)nc2c(N3CCOCC3)nc(-n3cccn3)nc21 [Compound 47] |  | 10 to 100 nM | 100 to 1000 nM |  |
| Cc1cccc(/C=N/Nc2nc(N3CCOCC3)c3nc(-c4ccncc4)n(C)c3n2)c1 [Compound 52, (E)-4-(9-methyl-2-(2-(3-methylbenzylidene)hydrazineyl)-8-(pyridin-4-yl)-9H-purin-6-yl)morpholine] |  | < 10 nM | < 10 nM |  |
| Cc1cccc(/C=N/Nc2nc(N3CCOCC3)c3nc(-c4ccncc4)n(C)c3n2)c1 [Compound 118] |  | 10 to 100 nM | 10 to 100 nM |  |
| Cc1cccc(/C=N/Nc2nc(N3CCOCC3)c3nc(-c4ccncc4)[nH]c3n2)c1 [Compound 119] |  | < 10 nM | < 10 nM |  |
| Cc1cccc(/C=N/Nc2cc(N3CCOCC3)n3nc(-c4ccncc4)cc3n2)c1 [drawing 161] |  |  |  | FAB1 TDP-43 (active/inactive) (FAB1 TDP-43 yeast strain): Inactive; PIKfyve TDP-43 (active/inactive) [2]: Active |
| Cc1cccc(/C=N/Nc2cc(N3CCOCC3)n3nc(-c4ccncc4)cc3n2)c1 [drawing 163] |  |  |  | FAB1 TDP-43 (active/inactive) (FAB1 TDP-43 yeast strain): Inactive; PIKfyve TDP-43 (active/inactive) [2]: Active |
| Cc1cccc(/C=N/Nc2nc(N3CCOCC3)c3nc(-c4ccncc4)n(C)c3n2)c1 [drawing 168] |  |  |  | IC50 [1, 4]: 1 nM; IC50 [2]: 1390 nM |
| Cn1c(-c2ccncc2)nc2c(N3CCOCC3)ncnc21 [drawing 169] |  |  |  | IC50 [1, 4]: 7 nM; IC50 [2]: 1120 nM |
| Cc1cccc(/C=N/Nc2nc(N3CCOCC3)c3nc(-c4ccncc4)n(C)c3n2)c1 [drawing 177] |  |  |  | IC50 [1, 4]: 5 nM; IC50 [2]: 4720 nM |
